The format of data set [1] is in vitro ADME. The conditions noted are these: human, microsomes, 1 μM, pH 7.4. As to the method:
(§1) Analytical LC/MS/MS systems: Agilent 1200 Series vacuum degasser, dual-injection pump, orifice autosampler, column incubator, charged spray ionization (ESI) source, and Agilent G6430 three-stage quadrupole mass spectrometer. The quantitative analysis is performed in the MRM mode, with the following MRM conversion parameters:
Analytical Agilent Poroshell HPH-C18: 2.1×50 mm, 2.7 μM column, 20 μL of sample was injected. Conditions: mobile phase with ammonium formate+0.1% formic acid (A) and methanol+2 mM ammonium formate+0.1% formic acid (B). The flow rate was 0.3 mL/min. The mobile phase gradient is as follows: […]
Agilent 6330 Series LC/MS/MS spectrometer was equipped with G1312A binary injection pump, G1367A automatic sampler and MS/MS detector; LC/MS/MS was used with ESI source. Suitable cationic model treatments and MRM conversion were used for each analyte using standard solution for optimal analysis. The Agilent Poroshell HPH-C18 column was used during the analysis with a specification of 100×4.6 mm I.D., 5 μM. The mobile phase included ammonium formate+0.1% formic acid (A) and methanol+2 mM ammonium formate+0.1% formic acid (B). The flow rate was 0.3 mL/min; the column temperature was maintained at 40° C.; 20 μL of sample was injected.
A human liver microsomal incubation system was used for the testing. The incubation mixtures included human or rat liver microsomes (0.5 mg protein/mL), the tested compound was provided at 1 μM. The compound was dissolved in DMSO and diluted with acetonitrile water and mixed with a mixture of liver microparticle potassium phosphate buffer solution (pH=7.4). The above operations were done on wet ice, and incubated in a thermostatic incubator at 37° C. At different time points (0, 60 and 120 min), ice-cold acetonitrile was added to terminate the reaction. NADPH was not added during the reaction, and the effect of esterase on its conversion was examined. Samples were stored at −80° C. until LC/MS/MS analysis was performed.
The conversion of the compounds of the disclosure to active adamantane compound, which is memantine in the human liver microsome was determined by LC/MS/MS.

Data set [2] in a line: In vivo pharmacokinetics after intramuscular administration in rats. As to the method:
Legend format: tested compound/dose (mg/kg)/converted active adamantane compound, which is memantine.
as §1
Waters XBridge TMC18, 2.1×30 mm, 3.5 μM column; 20 μL of sample was injected in each run. Conditions: The mobile phase included […]+2 mM ammonium formate+0.1% formic acid (A) and methanol+2 mM ammonium formate+0.1% formic acid (B). The flow rate was 0.35 mL/min. The mobile phase gradient is as follows: […]
Additional instruments and reagents included Agilent 6330 Series LC/MS/MS spectrometer equipped with a G1312A Binary Injection Pump, G1367A autosampler and MS/MS Detector for analysis; LC/MS/MS spectrometer with ESI source. Suitable cationic model treatments and MRM conversion were used for each analyte using standard solution for optimal analysis. Waters XBridge TMC18 was used with specifications of 2.1×30 mm, 3.5 μM. The reaction was carried out with ammonium formate+2 mM ammonium formate+0.1% formic acid (A) and methanol+2 mM ammonium formate+0.1% formic acid (B). The flow rate was 0.35 mL/min; the column temperature was maintained at 40° C.; 10 μL of sample was injected.
This example conducted pharmacokinetic studies of various compounds of the present disclosure in rats. The compounds were subjected to pretreatment including grinding and sieving, and were then added to a mixture formed by dissolving and dispersing in Tween-20 and/or Span-20. The mixtures were uniformly dispersed and fixed. The suspensions were pulverized by a ball mill […]. Memantine (MJG, 17.5 mg/kg) or tested compounds (75 or 37.5 mg/kg) were administered by intramuscular administration. Whole blood was collected at 0.25, 1, 2, 5, 7, 24, 48, 72, 96, 120, 148 and 196 h, was centrifuged at 12,000 g for 2 minutes. Plasma was collected and stored at −20° C. or −70° C. until the LC/MS/MS analysis was performed.

Where [3] appears, read: rat, im, solution, 17.5 mg/kg, memantine in plasma.

Where two headings read alike, the source gives them in different places.

For the molecule `CC12CC3CC(C)(C1)CC(NC(=O)OCOC(=O)Cc1cccc4ccccc14)(C3)C2` [Compound 1], the “Percentage of Remaining or Converted Active Adamantane Compound” value in data set [1] (1 h) came to 108%; in data set [1] (2 h), 101%.
Turning to `CC12CC3CC(C)(C1)CC(N)(C3)C2` [MJG, memantine], the “Percentage of Remaining or Converted Active Adamantane Compound” value in data set [1] (1 h) is 98%. Moreover, the “Percentage of Remaining or Converted Active Adamantane Compound” value in data set [1] (2 h) was 98%. Moreover, in data set [2] (setting [3]), the area under the curve AUC(0-t) was determined as 11800 ng·h/mL, the concentration peaked (Cmax) at 1940 ng/mL and the Tmax is 1.33 h. In addition, the half-life in data set [2] (rat, plasma, im, 17.5 mg/kg, solution, 17.5 mg/kg, memantine in plasma, read-out: T½ (converted)) is approximately 4 h. This molecule yielded a T½ in data set [2] (solution, 17.5 mg/kg, memantine in plasma) of 4 h.
On to `CCCCCCCCCCCC(=O)OCOC(=O)NC12CC3CC(C)(CC(C)(C3)C1)C2` [Compound 3], for which the “Percentage of Remaining or Converted Active Adamantane Compound” value in data set [1] (1 h) and in data set [1] (2 h) was 35.6% each time.
On to `CCCCCCCCCCCCCCCC(=O)OCOC(=O)NC12CC3CC(C)(CC(C)(C3)C1)C2` [Compound 4], for which the “Percentage of Remaining or Converted Active Adamantane Compound” value in data set [1] (1 h) was 25.3%; in data set [1] (2 h), 34%.
Take `CC12CC3CC(C)(C1)CC(NC(=O)OCOC(=O)c1ccccc1)(C3)C2` [Compound 2]: the entries for the “Percentage of Remaining or Converted Active Adamantane Compound” value in data set [1] (1 h) and in data set [1] (2 h) were 134% and 118%, respectively. Besides, the T½ entry in data set [2] (suspension, 75 mg/kg, converted memantine in plasma) is “too high to be measurable”.

Source of the values: patent US10800734B2, “Memantine compounds and their preparation and uses thereof” (Sunshine Lake Pharma Co., Ltd., priority 2016, dated 2020).
